From patent US20250228953A1, “INTRACELLULAR TARGETING OF OLIGONUCLEOTIDES” (Entrada Therapeutics, Inc., priority 2021, published 2025)

Columns and labels:
[1] = as reported by Tien, cited from earlier work; for SASA, Empirical / SASA, Theoretical: et al.
[2] = amino acid hydrophobicity scale; cited from earlier work
eGFP-654 transgene = assay: eGFP protein restoration in liver by ELISA; assay type: in vivo, mouse; conditions: 1 week
Protocol: Experiments were performed to determine if GalNAc conjugation to PMO or PMO-EEV could improve liver efficacy of PMO or PMO-EEV in EGFP-654 mice (Sazani et al., Nat Biotechnol. 2002 December; 20(12):1228-33. doi: 10.1038/nbt759.) in a single dosing schedule. Mice (EGFP-654, n=3/group; one female and two male) were injected intravenously (IV) with saline as control and 20 mpk of PMO1 and PMO1-EEV1; 0.2, 2, and 20 mpk (all normalized based on PMO dose) GalNAc-PMO2 and GalNAc-PMO2-EEV1 via both intravenous (TV) and subcutaneous (SC) route of administration. Both the PMO1 and the PMO2 have the same sequence and can be conjugated to EEV at the 3′ end, however, they have different functional handles at 5′ end. […] Thus, PMO1 is used as a control to when exploring the GalNAc liver targeting effects of the PMO2 GalNAc conjugates. An overview of the study design is illustrated in FIG. 16.
eGFP-654 transgenic mouse. The eGFP-654 transgenic mouse line was generated previously for evaluating splice switching oligonucleotides (Sazani et al. 2002 Nat Biotech; JAX stock #027617). The eGFP-654 transgene was cloned under a hybrid promoter with a cytomegalovirus early enhancer element, chicken beta-actin, and rabbit beta-globin, yielding widespread expression throughout the body. […]
eGFP relative protein analysis by […] (ELISA). […] Concentration was measured using a bicinchoninic acid (BCA) assay according to the manufacturer's protocol (Pierce BCA Protein Assay Kit 23227), diluting with the lysis buffer as needed. […] Sample eGFP levels were analyzed using enzyme-linked immunosorbent assay (ELISA) analysis with Abcam GFP ELISA kit (ab171581) according to the manufacturer's protocol. Sample eGFP levels were interpolated using the standard curve with the ELISA kit and reported as mass of eGFP detected (as measured by ELISA) per mass of protein content in the tissue lysate (as measured by BCA assay). the pg/mL of protein detected in each sample divided by the total protein concentration of lysates in ug/ml. […]

Compound | SASA, Empirical [1] [Å^2] | SASA, Theoretical [1] [Å^2] | SASA, Miller et al. (1987) [1] [Å^2] | SASA, Rose et al. (1985) [1] [Å^2] | Hydrophobicity, Eisenberg and Weiss [2] | Hydrophobicity, Engleman et al. [2] | Hydrophobicity, Janin [2] | Hydrophobicity, Kyrie and Doolittle [2] | eGFP protein restoration, different EEVs / GalNAc ligands conjugated to GalNAc-PMO2 constructs (eGFP-654 transgene; liver, 20 mpk PMO equivalent IV) | fold enhancement of efficacy compared to PMO1 (eGFP-654 transgene; liver eGFP, 20 mpk IV) [fold] | fold enhancement of efficacy compared to PMO1-EEV1 (eGFP-654 transgene; liver eGFP, 20 mpk IV) [fold]
C[C@H](N)C(=O)O [Ala, Alanine] | 121.0 | 129.0 | 113.0 | 118.1 | 0.25 | 1.6 | 0.3 | 1.8 | – | – | –
N=C(N)NCCC[C@H](N)C(=O)O [Arg, Arginine] | – | – | – | – | −1.80 | −12.3 | −1.4 | −4.5 | – | – | –
N=C(N)NCCC[C@H](N)C(=O)O [Arginine, arginine] | 265.0 | 274.0 | 241.0 | 256.0 | – | – | – | – | – | – | –
NC(=O)C[C@H](N)C(=O)O [Asn, Asparagine] | 187.0 | 195.0 | 158.0 | 165.5 | −0.64 | −4.8 | −0.5 | −3.5 | – | – | –
N[C@@H](CC(=O)O)C(=O)O [Asp, Aspartic acid] | 187.0 | 193.0 | 151.0 | 158.7 | −0.72 | −9.2 | −0.6 | −3.5 | – | – | –
N[C@@H](CS)C(=O)O [Cys, Cysteine] | 148.0 | 167.0 | 140.0 | 146.1 | 0.04 | 2.0 | 0.9 | 2.5 | – | – | –
N[C@@H](CCC(=O)O)C(=O)O [Glu, Glutamic acid] | 214.0 | – | 183.0 | 186.2 | −0.62 | −8.2 | −0.7 | −3.5 | – | – | –
NCC(=O)O [Gly, Glycine] | 97.0 | 104.0 | 85.0 | 88.1 | – | – | – | – | – | – | –
N[C@@H](Cc1c[nH]cn1)C(=O)O [His, Histidine] | 216.0 | 224.0 | 194.0 | 202.5 | −0.40 | −3.0 | −0.1 | −3.2 | – | – | –
CC[C@H](C)[C@H](N)C(=O)O [Ile, Isoleucine] | 195.0 | 197.0 | 182.0 | 181.0 | 0.73 | 3.1 | 0.7 | 4.5 | – | – | –
NCCCC[C@H](N)C(=O)O [Lys, Lysine] | 230.0 | 236.0 | 211.0 | 225.8 | −1.10 | −8.8 | −1.8 | −3.9 | – | – | –
CSCC[C@H](N)C(=O)O [Met, Methionine] | 203.0 | 224.0 | 204.0 | 203.4 | 0.26 | 3.4 | 0.4 | 1.9 | – | – | –
N[C@@H](Cc1ccccc1)C(=O)O [Phe, Phenylalanine] | 228.0 | 240.0 | 218.0 | 222.8 | 0.61 | 3.7 | 0.5 | 2.8 | – | – | –
O=C(O)[C@@H]1CCCN1 [Pro, Proline] | 154.0 | – | 143.0 | 146.8 | – | – | – | – | – | – | –
N[C@@H](CO)C(=O)O [Ser, Serine] | 143.0 | 155.0 | 122.0 | 129.8 | −0.26 | 0.6 | −0.1 | −0.8 | – | – | –
C[C@@H](O)[C@H](N)C(=O)O [Thr, Threonine] | 163.0 | 172.0 | 146.0 | 152.5 | −0.18 | 1.2 | −0.2 | −0.7 | – | – | –
N[C@@H](Cc1c[nH]c2ccccc12)C(=O)O [Trp, Tryptophan] | 264.0 | 285.0 | 259.0 | 266.3 | 0.37 | 1.9 | 0.3 | −0.9 | – | – | –
N[C@@H](Cc1ccc(O)cc1)C(=O)O [Tyr, Tyrosine] | 255.0 | 263.0 | 229.0 | 236.8 | 0.02 | −0.7 | −0.4 | −1.3 | – | – | –
CC(C)[C@H](N)C(=O)O [Val, Valine] | 165.0 | 174.0 | 160.0 | 164.5 | 0.54 | 2.6 | 0.6 | 4.2 | – | – | –
Cyclo(FGFRRRRQ)-PEG12-OH (cyclo(FGFRRRRQ); also: PEG12-OH attached, position not clear) [EEV6] | – | – | – | – | – | – | – | – | highest eGFP protein restoration | – | –
PMO3-GalNAc-EEV1: "EEV1 was reacted with compound PMO1-Lys(BCN) with the following sequence (5′-GCT ATT ACC TTA ACC CAG-3′)"; "GalNAc-N3 was then reacted with PMO1-Lys(BCN)-EEV1" (DNA GCTATTACCTTAACCCAG; all phosphorodiamidate morpholino (PMO); PMO with Lys(BCN) linker bearing GalNAc and EEV1 cell-penetrating peptide) | – | – | – | – | – | – | – | – | – | 14 | 8.9
